Reference: patent US9492413B2 (priority 2008, dated 2016)
Where two headings read alike, the source gives them in different places.

Assays:
JNK, p38 and ERK [1] = conditions: cited from earlier work
[2] = test system: human H5N1 isolate A/Thailand/KAN-1/2004; assay type: cell-based, influenza A virus
[3] = human, in vivo
[4] = test system: A/FPV/Bratislava/79 (H7N7)
IP10 = conditions: mouse, in vivo
[5] = test system: poly-ADP-ribose polymerase (PARP)
[6] = test system: viral proteins M1, NP, NS1 and PB1
JNK, p38 and ERK [7] = test system: JNK, p38 and ERK
IFN-gamma = conditions: mouse, in vivo
[8] = test system: viral ribonucleoprotein complexes (RNP)

Row | Molecule | virus-induced activation of JNK, p38 and ERK (JNK, p38 and ERK [1]) | inhibition of virus titers [2] | improvement of the symptoms, all other patients [3] | improvement of the symptoms, first day after the administration [3] | inhibition of virus multiplication (virus titers versus time) [4] | reduction of IP10 m-RNA expression (IP10; ip) [%] | reduction of IP10 m-RNA expression (IP10; iv) [%] | band of the cleaved PARP (caspase activation) [5] | accumulation of the viral proteins M1, NP, NS1 and PB1 [6] | reduction of replication (H7N1 virus (FPV)) | virus-induced activation of JNK, p38 and ERK (JNK, p38 and ERK [7]) | reduction of replication (H5N1 virus (MB1)) | reduction of IFN-gamma m-RNA expression (IFN-gamma; ip) [%] | reduction of IFN-gamma m-RNA expression (IFN-gamma; iv) [%] | retention of viral RNP complexes [8]
1 | CC(=O)Oc1ccccc1C(=O)O [acetylsalicylic acid, reference compound] | is not inhibited | efficient inhibition of the virus titers of the H5N1 strain by several decimal powers |  |  |  |  |  |  |  |  |  |  |  |  | 
2 | lysine-glycine-acetylsalicylate [LG-acetylsalicylate] |  | efficient inhibition of the virus titers of the H5N1 strain by several decimal powers | improvement of the symptoms occurred on the 3rd day | significant improvement of the symptoms | equally efficiently inhibits the virus multiplication | 26 | 62 | efficiently reduced | is not inhibited | more than 99% | is not blocked | more than 99% | 50 | 68 | efficient retention of viral RNP complexes
